# Values of other authors, collected in PubChem BioAssay AID1259409 (Chemical Carcinogenesis Research Information System (CCRIS), 2018).
# Tested on: rodent chemically induced tumor inhibition, incidence and multiplicity
# Test: CCRIS tumor inhibitor studies
smiles,measurement,setting,value
CC(C)(Oc1ccc(CCNC(=O)c2ccc(Cl)cc2)cc1)C(=O)O,"tumour outcome (control, treated, inhibition, significance)","Carcinogen: AZOXYMETHANE (25843-45-2), Dose [Inhibitor]: 0, 0.05% ADMINISTERED 1 WK AFTER END OF DEXTRAN SODIUM SULFATE TREATMENT FOR 14 WKS (STUDY DURATION: 17 WKS), Route [Inhibitor]: DIET, Species: MOUSE, Strain/Sex: CD-1/FEMALE (10,10)/(10,10), Target Tissue: Type of Lesion: COLON: ADENOCARCINOMA, Dose [Carcinogen]: 10 MG/KG ONCE, Promoter: DEXTRAN SODIUM SULFATE (9011-18-1)","10/10 (100%), 6/10 (60%), 40%, p<0.05"
same,"tumour outcome (control, treated, inhibition, significance)","Carcinogen: AZOXYMETHANE (25843-45-2), Dose [Inhibitor]: 0, 0.05% ADMINISTERED 1 WK AFTER END OF DEXTRAN SODIUM SULFATE TREATMENT FOR 14 WKS (STUDY DURATION: 17 WKS), Route [Inhibitor]: DIET, Species: MOUSE, Strain/Sex: CD-1/FEMALE (10,10)/(10,10), Target Tissue: Type of Lesion: COLON: ADENOMA, Dose [Carcinogen]: 10 MG/KG ONCE, Promoter: DEXTRAN SODIUM SULFATE (9011-18-1)","10/10 (100%), 7/10 (70%), 30%, not significant"
COc1ccc(C(c2ccc(OC)cc2)C(Cl)(Cl)Cl)cc1,outcome,"Carcinogen: N-NITROSOBIS(2-HYDROXYPROPYL)AMINE, 53609-64-6, Dose [Inhibitor]: 0, 1000 PPM IN DIET FOR 27 WK BEGINNING 9 WK POST CARCINOGEN TREATMENT (STUDY DURATION: 37 WK), Route [Inhibitor]: ORAL, Species: RAT, Strain/Sex: F344/FEMALE, Target Tissue: Type of Lesion: THYROID GLAND: ADENOMA, Dose [Carcinogen]: 2000 MG/KG BW 1 WK POST BILATERAL OVARIECTOMY, Promoter: SULFADIMETHOXINE, 122-11-2","0/12 (0%), 2/15 (13%), not significant"
same,"tumour outcome (control, treated, inhibition, significance)","Carcinogen: N-NITROSOBIS(2-HYDROXYPROPYL)AMINE, 53609-64-6, Dose [Inhibitor]: 0, 1000 PPM IN DIET FOR 27 WK BEGINNING 9 WK POST CARCINOGEN TREATMENT (STUDY DURATION: 37 WK), Route [Inhibitor]: ORAL, Species: RAT, Strain/Sex: F344/FEMALE, Target Tissue: Type of Lesion: THYROID GLAND: CARCINOMA, Dose [Carcinogen]: 2000 MG/KG BW 1 WK POST BILATERAL OVARIECTOMY, Promoter: SULFADIMETHOXINE, 122-11-2","10/12 (83%), 6/15 (40%), 52%, p<0.05"
CC(C)NCC(O)c1ccc(O)c(O)c1 (stereo not given),"tumour outcome (control, treated, inhibition, significance)","Carcinogen: 1,2-DIMETHYLHYDRAZINE DIHYDROCHLORIDE, 306-37-6, Dose [Inhibitor]: 0, 150 MG/KG BW 1/WK FOR 8 WK BEGINNING 20 D POST CARCINOGEN TREATMENT (STUDY DURATION: 26.5 WK), Route [Inhibitor]: INTRAPERITONEAL, Species: MOUSE, Strain/Sex: CF-1/FEMALE, Target Tissue: Type of Lesion: COLON: TUMOR, Dose [Carcinogen]: 20 MG/KG BW 1/WK FOR 8 WK, Promoter: NONE USED","10/12 (83%), 10/12 (83%), 0%, not significant"
same,"tumour outcome (control, treated, inhibition, significance)","Carcinogen: 1,2-DIMETHYLHYDRAZINE DIHYDROCHLORIDE, 306-37-6, Dose [Inhibitor]: 0, 150 MG/KG BW 1/WK FOR 12 WK ADMINISTERED 39 HR POST EACH CARCINOGEN DOSE (STUDY DURATION: 28 WK), Route [Inhibitor]: INTRAPERITONEAL, Species: MOUSE, Strain/Sex: CF-1/FEMALE, Target Tissue: Type of Lesion: COLON: TUMOR, Dose [Carcinogen]: 20 MG/KG BW 1/WK FOR 12 WK, Promoter: NONE USED","12/12 (100%), 9/9 (100%), 0%, not significant"
same,"tumour outcome (control, treated, inhibition, significance)","Carcinogen: 1,2-DIMETHYLHYDRAZINE DIHYDROCHLORIDE, 306-37-6, Dose [Inhibitor]: 0, 150 MG/KG BW 2/WK FOR 6 WK ADMINISTERED 15 AND 39 HR AFTER EACH CARCINOGEN DOSE (STUDY DURATION: 30 WK), Route [Inhibitor]: INTRAPERITONEAL, Species: MOUSE, Strain/Sex: CF-1/FEMALE, Target Tissue: Type of Lesion: COLON: TUMOR, Dose [Carcinogen]: 20 MG/KG BW 1/WK FOR 6 WK, Promoter: NONE USED","4/9 (44%), 0/8 (0%), 100%, not calculated"
same,"tumour outcome (control, treated, inhibition, significance)","Carcinogen: 1,2-DIMETHYLHYDRAZINE DIHYDROCHLORIDE, 306-37-6, Dose [Inhibitor]: 0, 150 MG/KG BW 2/WK FOR 12 WK ADMINISTERED 15 AND 39 HR POST EACH CARCINOGEN DOSE (STUDY DURATION: 28 WK), Route [Inhibitor]: INTRAPERITONEAL, Species: MOUSE, Strain/Sex: CF-1/FEMALE, Target Tissue: Type of Lesion: COLON: TUMOR, Dose [Carcinogen]: 20 MG/KB BW 1/WK FOR 12 WK, Promoter: NONE USED","12/12 (100%), 8/8 (100%), 0%, not significant"
same,"tumour outcome (control, treated, inhibition, significance)","Carcinogen: AZOXYMETHANE, 25843-45-2, Dose [Inhibitor]: 0.5 MG/KG BW 1/2D IN OLIVE OIL BEGINNING 3 WK PRIOR TO FIRST CARCINOGEN DOSE (STUDY DURATION: 40 WK), Route [Inhibitor]: SUBCUTANEOUS, Species: RAT, Strain/Sex: WISTAR/MALE, Target Tissue: Type of Lesion: COLON: TUMOR, Dose [Carcinogen]: 7.4 MG/KG BW IN 0.9% SALINE SOLUTION 1/WK FOR 10 WK, Promoter: NONE USED","18/20 (90%), 10/18 (56%), 38%, p<0.05"
same,"tumour outcome (control, treated, inhibition, significance)","Carcinogen: N-METHYL-N'-NITRO-N-NITROSOGUANIDINE, 70-25-7, Dose [Inhibitor]: 0, 0.1 MG/KG IN OLIVE OIL SUSPENSION 1/D BEGINNING 1 WK POST LAST CARCINOGEN DOSE AND CONTINUING FOR DURATION OF STUDY (, Species: RAT, Strain/Sex: WISTAR/MALE, Target Tissue: Type of Lesion: GLANDULAR STOMACH: ADENOCARCINOMA, Dose [Carcinogen]: 50 UG/ML IN DRINKING WATER FOR 25 WK, Promoter: NONE USED","15/18 (83%), 9/20 (45%), 46%, p<0.05"
C=CCS(=O)(=O)CC=C,outcome,"Carcinogen: Vinyl carbamate, 15805-73-9, Dose [Inhibitor]: 50 mg/kg once at beginning of experiment (Study duration: 25 wk), Route [Inhibitor]: Oral, Species: Mouse, Strain/Sex: F1 (Big Blue x A/J), Target Tissue: Type of Lesion: Lung: Papilliary tumors and solid tumors, Dose [Carcinogen]: 60 mg/kg once 2 hr after inhibitor (Study duration: 25 wk), Promoter: None","papilliary tumors: 84 (58%), 21 (13.5%), p<0.01 (significant decrease). solid tu"
CC[C@@H](C)[C@H](NC(=O)CN)C(=O)N[C@H](C(=O)N[C@@H](CCC(=O)O)C(=O)N[C@@H](CCC(N)=O)C(=O)N[C@H]1CSSC[C@H]2NC(=O)[C@H]([C@H](C)CC)NC(=O)[C@H](CO)NC(=O)[C@H]([C@H](C)O)NC(=O)[C@H](CSSC[C@H](NC(=O)[C@H](CC(C)C)NC(=O)[C@H](Cc3c[nH]cn3)NC(=O)[C@H](CCC(N)=O)NC(=O)[C@@H](NC(=O)[C@@H](NC(=O)[C@@H](N)Cc3ccccc3)C(C)C)C(N)=O)C(=O)NCC(=O)N[C@@H](CO)C(=O)N[C@@H](Cc3c[nH]cn3)C(=O)N[C@@H](CC(C)C)C(=O)N[C@@H](C(C)C)C(=O)N[C@@H](CCC(=O)O)C(=O)N[C@@H](C)C(=O)N[C@@H](CC(C)C)C(=O)N[C@@H](Cc3ccc(O)cc3)C(=O)N[C@@H](CC(C)C)C(=O)N[C@@H](C(C)C)C(=O)N[C@H](C(=O)NCC(=O)N[C@@H](CCC(=O)O)C(=O)N[C@@H](CCCNC(=N)N)C(=O)NCC(=O)N[C@@H](Cc3ccccc3)C(=O)N[C@@H](Cc3ccccc3)C(=O)N[C@@H](Cc3ccc(O)cc3)C(=O)N[C@H](C(=O)N3CCC[C@H]3C(=O)N[C@@H](CCCCN)C(=O)N[C@H](C(=O)O)[C@H](C)O)[C@H](C)O)CSSC[C@@H](C(=O)N[C@@H](CC(N)=O)C(=O)O)NC(=O)[C@H](Cc3ccc(O)cc3)NC(=O)[C@H](CC(N)=O)NC(=O)[C@H](CCC(=O)O)NC(=O)[C@H](CC(C)C)NC(=O)[C@H](CCC(N)=O)NC(=O)[C@H](Cc3ccc(O)cc3)NC(=O)[C@H](CC(C)C)NC(=O)[C@H](CO)NC2=O)NC1=O)C(C)C,"tumour outcome (control, treated, inhibition, significance)","Carcinogen: 7,12-DIMETHYLBENZ[A]ANTHRACENE, 57-97-6, Dose [Inhibitor]: 0, 10 I.U. FOR 7 D BEGINNING 3 D PRIOR TO CARCINOGEN DOSE (STUDY DURATION: 6 MO), Route [Inhibitor]: SUBCUTANEOUS, Species: RAT, Strain/Sex: SWISS/FEMALE, Target Tissue: Type of Lesion: MAMMARY GLAND: TUMOR, Dose [Carcinogen]: 20 MG IN 4 ML OLIVE OIL ONCE, Promoter: NONE USED","22/33 (67%), 6/32 (19%), 72%, not calculated"
CC(O)CCC(=O)c1cccs1 (stereo not given),"tumour outcome (control, treated, inhibition, significance)","Carcinogen: 4-(METHYLNITROSAMINO)-1-(3-PYRIDYL)-1-BUTANONE, 64091-91-4, Dose [Inhibitor]: 0, 25 UMOL IN 0.1 ML CORN OIL ONCE 2 HR PRIOR TO CARCINOGEN DOSE (STUDY DURATION: 16 WK), Route [Inhibitor]: GAVAGE, Species: MOUSE, Strain/Sex: STRAIN-A/FEMALE, Target Tissue: Type of Lesion: LUNG: ADENOMA, Dose [Carcinogen]: 10 UMOL IN 0.1 ML SALINE ONCE, Promoter: NONE USED","100%, 100%, 0%, not significant"
CC(C)[C@@H]1CC[C@@H](C)C[C@H]1O,"tumour outcome (control, treated, inhibition, significance)","Carcinogen: AZOXYMETHANE, 25843-45-2, Dose [Inhibitor]: 0, 5 MG/G IN DIET FOR 22 WK BEGINNING 3 D POST LAST CARCINOGEN DOSE (STUDY DURATION: 25 WK), Route [Inhibitor]: ORAL, Species: RAT, Strain/Sex: F344/MALE, Target Tissue: Type of Lesion: DUODENUM: ADENOCARCINOMA, Dose [Carcinogen]: 15 MG/KG BW 2/WK FOR 3 WK, Promoter: NONE USED","50%, 42%, 16%, not significant"
same,"tumour outcome (control, treated, inhibition, significance)","Carcinogen: AZOXYMETHANE, 25843-45-2, Dose [Inhibitor]: 0, 5 MG/G IN DIET FOR 22 WK BEGINNING 3 D POST LAST CARCINOGEN DOSE (STUDY DURATION: 25 WK), Route [Inhibitor]: ORAL, Species: RAT, Strain/Sex: F344/MALE, Target Tissue: Type of Lesion: LARGE BOWEL: ADENOMATOUS POLYP, Dose [Carcinogen]: 15 MG/KG BW 2/WK FOR 3 WK, Promoter: NONE USED","82%, 88%, -7%, not significant"
